According to patent US10927123B2, “Modulators of the beta-3 adrenergic receptor useful for the treatment or prevention of disorders related thereto” (Arena Pharmaceuticals, Inc., priority 2016, dated 2021):

Molecular target: Beta-3 Adrenergic Receptor (Homo sapiens (Human), UniProt P13945)
Experiment: HTRF cAMP antagonist assay (IC50 determination)
Format: cell-based
Details: CHO-K1 cells stably expressing recombinant receptor; antagonism of isoproterenol at EC90; cAMP readout
In short: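 Antagonist mode: isoproterenol at its predetermined EC90 added after compound to recombinant CHO-K1 cells in IBMX-containing PBS, 1 h, room temperature. Compounds tested as 5-fold, 10-point dilutions, top final typically 10 or 100 μM. HTRF signal converted to cAMP via standard curve, giving IC50.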

Beta-3 Adrenergic Receptor, sequence (P13945 whole entry, species assumed): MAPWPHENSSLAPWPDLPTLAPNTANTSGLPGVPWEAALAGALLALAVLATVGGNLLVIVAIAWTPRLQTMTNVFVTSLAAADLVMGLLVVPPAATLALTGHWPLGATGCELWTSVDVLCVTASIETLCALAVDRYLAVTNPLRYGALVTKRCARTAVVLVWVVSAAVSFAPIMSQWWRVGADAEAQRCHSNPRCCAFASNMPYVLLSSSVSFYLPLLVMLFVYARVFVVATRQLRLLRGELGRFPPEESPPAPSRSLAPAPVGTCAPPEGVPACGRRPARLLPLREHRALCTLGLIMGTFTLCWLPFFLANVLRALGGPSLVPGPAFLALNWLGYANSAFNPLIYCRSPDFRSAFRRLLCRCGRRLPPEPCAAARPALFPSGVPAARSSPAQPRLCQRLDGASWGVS

IC50 [µM] | SMILES
0.0388 | CCS(=O)(=O)c1cccc(OC[C@@H](O)CN[C@@H]2COC3(CCN(S(=O)(=O)c4ccc(OC)c(-c5ccc(C6(N)CC6)cc5)c4)CC3)C2)c1 [Compound 261, (S)-1-((S)-8-(4′-(1-aminocyclopropyl)-6-methoxybiphenyl-3-ylsulfonyl)-1-oxa-8-azaspiro[4.5]decan-3-ylamino)-3-(3-(ethylsulfonyl)phenoxy)propan-2-ol]
0.0964 | O=C1NCc2ncc(S(=O)(=O)N3CCC4(CC3)C[C@@H](NC[C@H](O)COc3cccc(S(=O)(=O)C5CC5)c3)CO4)cc21 [Compound 280, 3-((R)-3-((S)-3-(3-(cyclopropylsulfonyl)phenoxy)-2-hydroxypropylamino)-1-oxa-8-azaspiro[4.5]decan-8-ylsulfonyl)-6,7-dihydro-5H-pyrrolo[3,4-b]pyridin-5-one]
0.32 | CC(C)CS(=O)(=O)c1cccc(OC[C@@H](O)CN[C@H]2COC3(CCN(S(=O)(=O)c4ccc5ncccc5c4)CC3)C2)c1 [Compound 116, (S)-1-(3-(isobutylsulfonyl)phenoxy)-3-((R)-8-(quinolin-6-ylsulfonyl)-1-oxa-8-azaspiro[4.5]decan-3-ylamino)propan-2-ol]
0.039 | CS(=O)(=O)c1cccc(OC[C@@H](O)CNC2COC3(CCN(S(=O)(=O)c4cccc(-c5cncnc5)c4)CC3)C2)c1 (stereo partly drawn) [Compound 71, (2S)-1-(3-(methylsulfonyl)phenoxy)-3-(8-(3-(pyrimidin-5-yl)phenylsulfonyl)-1-oxa-8-azaspiro[4.5]decan-3-ylamino)propan-2-ol]
0.172 | O=S(=O)(CC1CC1)c1cccc(OC[C@@H](O)CN[C@H]2COC3(CCN(S(=O)(=O)c4ccc5ncccc5c4)CC3)C2)c1 [Compound 117, (S)-1-(3-(cyclopropylmethylsulfonyl)phenoxy)-3-((R)-8-(quinolin-6-ylsulfonyl)-1-oxa-8-azaspiro[4.5]decan-3-ylamino)propan-2-ol]
0.0698 | O=S(=O)(c1cccc(OC[C@@H](O)CN[C@H]2COC3(CCN(S(=O)(=O)c4cnc5c(c4)CCCO5)CC3)C2)c1)C1CC1 [Compound 291, (5)-1-(3-(cyclopropylsulfonyl)phenoxy)-3-((R)-8-(3,4-dihydro-2H-pyrano[2,3-b]pyridin-6-ylsulfonyl)-1-oxa-8-azaspiro[4.5]decan-3-ylamino)propan-2-ol]
0.00879 | CCOc1ccc(-c2ccc(CN)cc2)cc1S(=O)(=O)N1CCC2(CC1)C[C@H](NC[C@H](O)COc1cccc(S(C)(=O)=O)c1F)CO2 [Compound 209, (S)-1-((S)-8-(4′-(aminomethyl)-4-ethoxybiphenyl-3-ylsulfonyl)-1-oxa-8-azaspiro[4.5]decan-3-ylamino)-3-(2-fluoro-3-(methylsulfonyl)phenoxy)propan-2-ol]
0.258 | O=S(=O)(c1cncc(Br)c1)N1CCC2(CC1)C[C@@H](NC[C@H](O)COc1cccc(S(=O)(=O)C3(CO)CC3)c1)CO2 [Compound 185, (S)-1-((R)-8-(5-bromopyridin-3-ylsulfonyl)-1-oxa-8-azaspiro[4.5]decan-3-ylamino)-3-(3-(1-(hydroxymethyl)cyclopropylsulfonyl)phenoxy)propan-2-ol]
0.0786 | O=S(=O)(c1cncc(Br)c1)N1CCC2(CC1)C[C@H](NC[C@H](O)COc1cccc(S(=O)(=O)C3(CO)CC3)c1)CO2 [Compound 186, (S)-1-((S)-8-(5-bromopyridin-3-ylsulfonyl)-1-oxa-8-azaspiro[4.5]decan-3-ylamino)-3-(3-(1-(hydroxymethyl)cyclopropylsulfonyl)phenoxy)propan-2-ol]
0.0496 | CC(C)S(=O)(=O)c1cccc(OC[C@@H](O)CN[C@H]2COC3(CCN(S(=O)(=O)c4cnc5c(F)cccc5c4O)CC3)C2)c1 [Compound 323, 8-fluoro-3-((R)-3-((S)-2-hydroxy-3-(3-(isopropylsulfonyl)phenoxy)propylamino)-1-oxa-8-azaspiro[4.5]decan-8-ylsulfonyl)quinolin-4-ol]
0.082 | CCOc1ccc(S(=O)(=O)N2CCC3(CC2)C[C@H](NC[C@H](O)COc2cccc(S(=O)(=O)C4(CO)CC4)c2)CO3)cc1-c1ccc(CN)cc1 [Compound 237, (S)-1-((S)-8-(4′-(aminomethyl)-6-ethoxybiphenyl-3-ylsulfonyl)-1-oxa-8-azaspiro[4.5]decan-3-ylamino)-3-(3-(1-(hydroxymethyl)cyclopropylsulfonyl)phenoxy)propan-2-ol]
0.0333 | O=S(=O)(CCO)c1cccc(OC[C@@H](O)CNC2COC3(CCN(S(=O)(=O)c4ccc5ccccc5c4)CC3)C2)c1 (stereo partly drawn) [Compound 5, (2S)-1-(3-(2-hydroxyethylsulfonyl)phenoxy)-3-(8-(naphthalen-2-ylsulfonyl)-1-oxa-8-azaspiro[4.5]decan-3-ylamino)propan-2-ol]
0.0322 | CCn1cc(S(=O)(=O)N2CCC3(CC2)C[C@H](NC[C@H](O)COc2cccc(S(C)(=O)=O)c2)CO3)c(=O)c2ccccc21 [Compound 338, 1-ethyl-3-((S)-3-((S)-2-hydroxy-3-(3-(methylsulfonyl)phenoxy)propylamino)-1-oxa-8-azaspiro[4.5]decan-8-ylsulfonyl)quinolin-4(1H)-one]
0.0291 | COc1ccc(S(=O)(=O)N2CCC3(CC2)C[C@H](NC[C@H](O)COc2cccc(S(=O)(=O)C4CC4)c2)CO3)cc1-c1ccc(C2(N)CC2)cc1 [Compound 253, (S)-1-((S)-8-(4′-(1-aminocyclopropyl)-6-methoxybiphenyl-3-ylsulfonyl)-1-oxa-8-azaspiro[4.5]decan-3-ylamino)-3-(3-(cyclopropylsulfonyl)phenoxy)propan-2-ol]
0.699 | CCOc1ccc(-c2ccc(C(C)(C)CN)cc2)cc1S(=O)(=O)N1CCC2(CC1)C[C@@H](NC[C@H](O)COc1cccc(S(=O)(=O)C3(CO)CC3)c1)CO2 [Compound 174, (S)-1-((R)-8-(4′-(1-amino-2-methylpropan-2-yl)-4-ethoxybiphenyl-3-ylsulfonyl)-1-oxa-8-azaspiro[4.5]decan-3-ylamino)-3-(3-(1-(hydroxymethyl)cyclopropylsulfonyl)phenoxy)propan-2-ol]
0.141 | O=C1Cc2cc(S(=O)(=O)N3CCC4(CC3)C[C@@H](NC[C@H](O)COc3cccc(S(=O)(=O)C5CC5)c3)CO4)cnc2N1 [Compound 313, 5-((R)-3-((S)-3-(3-(cyclopropylsulfonyl)phenoxy)-2-hydroxypropylamino)-1-oxa-8-azaspiro[4.5]decan-8-ylsulfonyl)-1H-pyrrolo[2,3-b]pyridin-2(3H)-one]
0.411 | O=S(=O)(CCO)c1cccc(OC[C@@H](O)CN[C@H]2COC3(CCN(S(=O)(=O)c4cccc(-c5ccncc5)c4)CC3)C2)c1 [Compound 96, (S)-1-(3-(2-hydroxyethylsulfonyl)phenoxy)-3-((R)-8-(3-(pyridin-4-yl)phenylsulfonyl)-1-oxa-8-azaspiro[4.5]decan-3-ylamino)propan-2-ol]
0.18 | CC(C)(CN)c1ccc(-c2cccc(S(=O)(=O)N3CCC4(CC3)C[C@@H](NC[C@H](O)COc3cccc(S(=O)(=O)C5(CO)CC5)c3)CO4)c2)cc1 [Compound 181, (S)-1-((R)-8-(4′-(1-amino-2-methylpropan-2-yl)biphenyl-3-ylsulfonyl)-1-oxa-8-azaspiro[4.5]decan-3-ylamino)-3-(3-(1-(hydroxymethyl)cyclopropylsulfonyl)phenoxy)propan-2-ol]
0.0269 | C=CS(=O)(=O)c1cccc(OC[C@@H](O)CN[C@H]2COC3(CCN(S(=O)(=O)c4cnc5ccccc5c4)CC3)C2)c1 [Compound 92, (S)-1-((R)-8-(quinolin-3-ylsulfonyl)-1-oxa-8-azaspiro[4.5]decan-3-ylamino)-3-(3-(vinylsulfonyl)phenoxy)propan-2-ol]
0.133 | O=S(=O)(CC1CCCCC1)c1cccc(OC[C@@H](O)CNC2COC3(CCN(S(=O)(=O)c4ccc5ccccc5c4)CC3)C2)c1 (stereo partly drawn) [Compound 16, (2S)-1-(3-(cyclohexylmethylsulfonyl)phenoxy)-3-(8-(naphthalen-2-ylsulfonyl)-1-oxa-8-azaspiro[4.5]decan-3-ylamino)propan-2-ol]
0.0411 | O=S(=O)(CCO)c1cccc(OC[C@@H](O)CN[C@H]2COC3(CCN(S(=O)(=O)c4ccc5c(c4)OCCC5)CC3)C2)c1 [Compound 87, (S)-1-((R)-8-(chroman-7-ylsulfonyl)-1-oxa-8-azaspiro[4.5]decan-3-ylamino)-3-(3-(2-hydroxyethylsulfonyl)phenoxy)propan-2-ol]
0.104 | CCn1cc(S(=O)(=O)N2CCC3(CC2)C[C@@H](NC[C@H](O)COc2cccc(S(=O)(=O)C4CC4)c2)CO3)c(=O)c2cc(C)ccc21 [Compound 317, 3-((R)-3-((S)-3-(3-(cyclopropylsulfonyl)phenoxy)-2-hydroxypropylamino)-1-oxa-8-azaspiro[4.5]decan-8-ylsulfonyl)-1-ethyl-6-methylquinolin-4(1H)-one]
0.0516 | CCOc1ccc(-c2ccc(C(C)(C)N)cc2)cc1S(=O)(=O)N1CCC2(CC1)CC(NC[C@H](O)COc1cccc(S(=O)(=O)C3(CO)CC3)c1)CO2 (some centres unmarked) [Compound 251]
0.0289 | Cc1cccc2c(O)c(S(=O)(=O)N3CCC4(CC3)C[C@@H](NC[C@H](O)COc3cccc(S(=O)(=O)C5CC5)c3)CO4)cnc12 [Compound 327, 3-((R)-3-((S)-3-(3-(cyclopropylsulfonyl)phenoxy)-2-hydroxypropylamino)-1-oxa-8-azaspiro[4.5]decan-8-ylsulfonyl)-8-methylquinolin-4-ol]
0.0491 | CCOc1ccc(-c2ccc(CN)cc2)cc1S(=O)(=O)N1CCC2(CC1)C[C@@H](NC[C@H](O)COc1cccc(S(=O)(=O)CC(N)=O)c1)CO2 [Compound 179, 2-(3-((S)-3-((R)-8-(4′-(aminomethyl)-4-ethoxybiphenyl-3-ylsulfonyl)-1-oxa-8-azaspiro[4.5]decan-3-ylamino)-2-hydroxypropoxy)phenylsulfonyl)acetamide]
0.0178 | CC(C)S(=O)(=O)c1cccc(OC[C@@H](O)CN[C@H]2COC3(CCN(S(=O)(=O)c4cnc5cc[nH]c5c4)CC3)C2)c1 [Compound 321, (S)-1-((R)-8-(1H-pyrrolo[3,2-b]pyridin-6-ylsulfonyl)-1-oxa-8-azaspiro[4.5]decan-3-ylamino)-3-(3-(isopropylsulfonyl)phenoxy)propan-2-ol]
